Mass density and refractive index data for 7 molecules are collected here from the NIST ThermoML archive (doi:10.1016/j.fluid.2010.05.017).

By mass density is commonly meant the mass of a sample divided by its volume. As usually defined, the refractive index is the speed of light in vacuum divided by its phase velocity in the sample.

± gives the expanded uncertainty stated by the source.

Series [1] can be described thus: xn = mol fraction of the nth substance listed. Particulars: 298.15 K, 101 kPa, Liquid, Vibrating tube method.
For series [2] the following is noted: 298.15 K; 101.33 kPa; Liquid; Vibrating tube method.
Series [3] is described as follows: refractive index (Na D-line) (dimensionless). Particulars: 298.15 K; 101.33 kPa; Liquid; Standard Abbe refractometry.

With `Cc1ccccc1C` [1,2-dimethylbenzene] + CCCCCC, the mass density in series [1] (x2 = 0) is 875.37 ± 0.24 kg/m3; in series [1] (x2 = 0.045) it was 865.52 ± 2.7 kg/m3; in series [1] (x2 = 0.097), 853.5 ± 2.7 kg/m3; in series [1] (x2 = 0.189), 832.71 ± 2.7 kg/m3; in series [1] (x2 = 0.295), 809.05 ± 2.7 kg/m3; in series [1] (x2 = 0.397), 786.32 ± 2.7 kg/m3. The mass density stood at 764.54 ± 2.7 kg/m3 in series [1] (x2 = 0.495); 742.07 ± 2.6 kg/m3 in series [1] (x2 = 0.597); 720.32 ± 2.6 kg/m3 in series [1] (x2 = 0.697); 698.71 ± 2.6 kg/m3 in series [1] (x2 = 0.797); 676.45 ± 2.6 kg/m3 in series [1] (x2 = 0.901); 665.83 ± 2.6 kg/m3 in series [1] (x2 = 0.95).
As to `Cc1cccc(C)c1` [1,3-dimethylbenzene] + CCCCCC, the mass density in series [1] (x2 = 0) is 859.79 ± 0.24 kg/m3; in series [1] (x2 = 0.05) it was 849.62 ± 2.5 kg/m3; in series [1] (x2 = 0.098), 839.51 ± 2.5 kg/m3; in series [1] (x2 = 0.194) it was 819.34 ± 2.5 kg/m3; in series [1] (x2 = 0.297) it was 797.9 ± 2.5 kg/m3; in series [1] (x2 = 0.398), 777.18 ± 2.5 kg/m3. For the same molecule, the mass density in series [1] (x2 = 0.498) is listed as 756.55 ± 2.5 kg/m3; in series [1] (x2 = 0.6), 735.62 ± 2.5 kg/m3; in series [1] (x2 = 0.699) it was 715.46 ± 2.5 kg/m3; in series [1] (x2 = 0.793), 696.42 ± 2.4 kg/m3; in series [1] (x2 = 0.896), 676.03 ± 2.4 kg/m3; in series [1] (x2 = 0.948), 665.51 ± 2.4 kg/m3.
Turning to `Cc1ccc(C)cc1` [1,4-dimethylbenzene] + CCCCCC, the mass density in series [1] (x2 = 0) worked out at 856.59 ± 0.24 kg/m3; in series [1] (x2 = 0.048), 847.14 ± 2.4 kg/m3; in series [1] (x2 = 0.098), 836.82 ± 2.5 kg/m3; in series [1] (x2 = 0.196), 816.92 ± 2.5 kg/m3; in series [1] (x2 = 0.292), 797.23 ± 2.5 kg/m3; in series [1] (x2 = 0.394) it was 776.41 ± 2.5 kg/m3. Also, the mass density in series [1] (x2 = 0.492) was 756.57 ± 2.4 kg/m3; in series [1] (x2 = 0.591) it was 736.73 ± 2.4 kg/m3; in series [1] (x2 = 0.692) it was 716.48 ± 2.4 kg/m3; in series [1] (x2 = 0.792), 696.69 ± 2.4 kg/m3; in series [1] (x2 = 0.892), 676.71 ± 2.4 kg/m3; in series [1] (x2 = 0.948), 665.7 ± 2.4 kg/m3.
Consider `CCOS(=O)(=O)[O-].CC[n+]1cccc(C)c1` [1-ethyl-3-methylpyridinium ethylsulfate], for which, in series [2], the mass density came to 1219.61 ± 0.42 kg/m3. In addition, the refractive index in series [3] is listed as 1.50591 ± 0.00071.
On to `CCCCCC` [hexane] + Cc1ccc(C)cc1, for which the mass density in series [1] (x1 = 1) is reported as 655.19 ± 0.25 kg/m3.
In the case of `CCCCCC` [hexane] + Cc1cccc(C)c1, in series [1] (x1 = 1), the mass density is given as 655.19 ± 0.25 kg/m3.
On to `CCCCCC` [hexane] + Cc1ccccc1C, for which the mass density in series [1] (x1 = 1) is listed as 655.19 ± 0.25 kg/m3.
